Data from patent publication US20240300975A1, “DIMETHYL-SUBSTITUTED THIAZOLOLACTAM COMPOUND AND USE THEREOF” (D3 Bio (Wuxi) Co., Ltd., priority 2021, published 2024).

Key:
ERK2 = ERK2 (Homo sapiens (Human), UniProt P28482); assay: In vitro ERK2 kinase activity assay (33P-ATP, filter-binding); format: biochemical
Method: The ability of compounds to inhibit ERK1 and ERK2 kinase activity was measured.
20 mM Hepes (pH 7.5), 10 mM MgCl2, 1 mM ethylenebis(oxyethylenenitrilo)tetraacetic acid (EGTA), 0.02% Brij35, 0.02 mg/mL bovine serum albumin (BSA), 0.1 mM Na3VO4, 2 mM dithiothreitol (DTT), 1% DMSO.
The assay compound was dissolved in 100% DMSO to prepare a stock solution of specific concentration. The compound was serially diluted in DMSO solution using Integra Viaflo Assist smart pipette.
• a) The substrate MBP was prepared in freshly prepared reaction buffer; • b) ERK1 (or ERK2) kinase was added to the above-mentioned MBP solution and mixed gently; • c) The compound dissolved in 100% DMSO was added to the kinase reaction system using ultrasound technology (Echo550; nanoliter range), and the mixture was incubated at room temperature for 20 minutes; • d)^33P-ATP (specific concentration of […]) was added to the reaction system, and the reaction was started at this time; • e) The mixture was incubated at room temperature for 2 hours; • f) The amount of radioactivity was detected by filter-binding method; • g) ERK1 (or ERK2) kinase activity was calculated as the ratio of the remaining kinase activity in the assay sample to the kinase activity of the control group (treated by DMSO).
Curve was fitted using Prism (GraphPad software) and IC50 values were calculated.

HT29 tumor cells = assay: In vitro cell proliferation inhibition (CellTiterGlo); format: cell-based; conditions: Homo sapiens, HT-29
Method: The ability of compounds to inhibit the proliferation of HT29 tumor cells was measured.
The assay compound was dissolved in 100% DMSO to prepare 10 mM stock solution.
• a) UV light of a biological safety cabin was turned on, and 30 minutes were counted down; • b) In a 37° C. water bath, RPMI1640 medium and trypsin were preheated; • c) After completion of the UV irradiation, the biological safety cabin was opened. The preheated medium, trypsin and phosphate buffered saline (PBS), etc. were wiped with alcohol and placed in the biological safety cabin; • d) HT29 cells were removed from the incubator, and the old medium was removed in biological safety cabin. 10 ml of PBS was added. […] The culture vessel was shaken horizontally so that the trypsin evenly covered the cells at the bottom, and placed in an incubator for 2 minutes; • f) Cell digestion was stopped with complete medium, and the cell suspension was pipetted to homogeneity and counted; • g) According to the result of cell counting, the density of cell suspension was adjusted to 1500 cells per well, and the cell suspension was seeded at 50 μl per well; • h) The stock solution of compounds was serially diluted in DMSO solution, and compounds were added to cell plate using Tecan; • i) The compound-added cell plate and CellTiterGlo were equilibrated at room temperature, and 25 microliters of CellTiterGlo was then added to each well. […]

ERK2, sequence (P28482 whole entry): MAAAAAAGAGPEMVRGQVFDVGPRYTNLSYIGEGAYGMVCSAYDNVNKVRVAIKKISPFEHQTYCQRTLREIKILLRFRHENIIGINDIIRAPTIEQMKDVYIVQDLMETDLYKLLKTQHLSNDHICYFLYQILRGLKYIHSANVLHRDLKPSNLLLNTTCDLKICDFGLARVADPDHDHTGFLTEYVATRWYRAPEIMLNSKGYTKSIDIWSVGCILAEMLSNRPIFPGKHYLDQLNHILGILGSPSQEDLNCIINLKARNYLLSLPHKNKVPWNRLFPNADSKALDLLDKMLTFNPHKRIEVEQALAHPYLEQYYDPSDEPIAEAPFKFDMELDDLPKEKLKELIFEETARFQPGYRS

Cc1cccc(CN2C(=O)c3nc(-c4nc(NC5CCOCC5)ncc4C)sc3C2(C)C)n1 [WX002]
IC50 (ERK2): 0.47 nM
IC50 (HT29 tumor cells): 46 nM

Cc1cccc(CN2C(=O)c3nc(-c4ccnc(Nc5ccnn5C)n4)sc3C2(C)C)n1 [WX003]
IC50 (ERK2): 0.93 nM

CCc1cnc(Nc2ccnn2C)nc1-c1nc2c(s1)C(C)(C)N(Cc1cccc(C)n1)C2=O [WX004]
IC50 (ERK2): 0.34 nM
